Eleven molecules from ChEMBL document CHEMBL3045091, “Synthesis and antimicrobial activities of some new 5-((3-(aryl)-1-phenyl-1H-pyrazol-4-yl)methylene)-3-phenylthiazolidine-2,4-diones” (2012) can be followed below.

Values after ≈ are worked out from the molar mass of the structure shown. Active and inactive are the calls of the source. No cut-off for these calls is given here.

In test [1] the test system is Pseudomonas aeruginosa. The settings on record: MTCC 741, 4 mg/ml.
Description: (§1) Antibacterial activity against Pseudomonas aeruginosa MTCC 741 at 4 mg/ml after 24 hr by agar well diffusion method
Test [2] deals with Bacillus subtilis. Nature of the test: Antibacterial activity against Bacillus subtilis MTCC 121 after 24 hr by macro dilution tube method. Type of test: functional. As to conditions: MTCC 121, 24 h.
In the next test the test system is Escherichia coli. Description: Antibacterial activity against Escherichia coli MTCC 1652 at 4 mg/ml after 24 hr by agar well diffusion method. Type of test: functional, organism-based. On the technique in general: Agar diffusion results depend on both activity and mobility in agar.
A further test relates to Aspergillus flavus. Nature of the test: Antifungal activity against Aspergillus flavus after 7 days by poisoned food technique. Type of test: functional.
Test [3] deals with Staphylococcus aureus. Nature of the test: Antibacterial activity against Staphylococcus aureus MTCC 96 at 4 mg/ml after 24 hr by agar well diffusion method. The settings on record: MTCC 96, 24 h, read-out: DIZ. The class given is functional.
The test system of test [4] is Staphylococcus aureus. Description: Antibacterial activity against Staphylococcus aureus MTCC 96 after 24 hr by macro dilution tube method. The class given is functional. As to conditions: MTCC 96, 24 h.
The test system of the next test is Aspergillus niger. Nature of the test: Antifungal activity against Aspergillus niger after 7 days by poisoned food technique. Type of test: functional.
The subject of test [5] is Bacillus subtilis. Nature of the test: Antibacterial activity against Bacillus subtilis MTCC 121 at 4 mg/ml after 24 hr by agar well diffusion method. The class given is functional. The settings on record: MTCC 121, 24 h, read-out: DIZ.
The subject of test [6] is Pseudomonas aeruginosa. Description: microbe, parasite or virus in culture. As to conditions: MTCC 741, 24 h, read-out: DIZ.
Description: as §1

As to `O=C1S/C(=C\c2cn(-c3ccccc3)nc2-c2ccccc2)C(=O)N1c1ccccc1`, the DIZ result in the test with Pseudomonas aeruginosa [1] was “inactive”. The MIC (as a rule, the lowest concentration that inhibits growth of the organism) against Bacillus subtilis [2] stood at 64 µg/mL (≈ 151 µM); against Staphylococcus aureus [4], 128 µg/mL (≈ 302 µM). Further, in the test with Escherichia coli, the “diameter of the inhibition zone (DIZ)” value is “inactive”. The “growth inhibition (GI)” value in the test with Aspergillus flavus is 50%; in the test on Aspergillus niger, 55.5%. Besides, the zone of inhibition at 4000 µg/mL turned out to be 18.6 mm with Staphylococcus aureus [3] and 19.3 mm in the test with Bacillus subtilis [5].
As to `O=C1S/C(=C\c2cn(-c3ccccc3)nc2-c2ccc(Br)cc2)C(=O)N1c1ccccc1`, the DIZ result in the test on Pseudomonas aeruginosa [1] is “inactive”. For the same molecule, the MIC with Bacillus subtilis [2] and with Staphylococcus aureus [4] was 32 µg/mL (≈ 63.7 µM) in each case. For the same molecule, the “diameter of the inhibition zone (DIZ)” value in the test with Escherichia coli was “inactive”. Moreover, the “growth inhibition (GI)” value with Aspergillus flavus is 55.5%; in the test on Aspergillus niger it was 38.8%. Also, the zone of inhibition at 4000 µg/mL was 21.6 mm with Staphylococcus aureus [3] and 20.6 mm with Bacillus subtilis [5].
With `O=C1S/C(=C\c2cn(-c3ccccc3)nc2-c2ccc(Cl)cc2)C(=O)N1c1ccccc1`, the DIZ entry in the test with Pseudomonas aeruginosa [1] is “inactive”. In addition, the MIC with Bacillus subtilis [2] was found to be 128 µg/mL (≈ 280 µM); in the test on Staphylococcus aureus [4], 64 µg/mL (≈ 140 µM). Moreover, in the test with Escherichia coli, the “diameter of the inhibition zone (DIZ)” value was “inactive”. The figures for the “growth inhibition (GI)” value with Aspergillus flavus and in the test with Aspergillus niger were 61.1% and 55.5%, respectively. The zone of inhibition at 4000 µg/mL in the test on Staphylococcus aureus [3] came out at 20.6 mm; with Bacillus subtilis [5] it was 18.3 mm.
Turning to `O=C(O)c1cn(C2CC2)c2cc(N3CCNCC3)c(F)cc2c1=O` [CIPROFLOXACIN], the MIC against Bacillus subtilis [2] and with Staphylococcus aureus [4] was 5 µg/mL (≈ 15.1 µM) each time. Also, the zone of inhibition at 4000 µg/mL in the test with Pseudomonas aeruginosa [6] came out at 22 mm; with Staphylococcus aureus [3], 26 mm; in the test on Bacillus subtilis [5], 24 mm.
Turning to `O=C1S/C(=C\c2cn(-c3ccccc3)nc2-c2ccc(O)cc2)C(=O)N1c1ccccc1`, in the test with Pseudomonas aeruginosa [1], the DIZ result is “inactive”. Also, the MIC against Bacillus subtilis [2] was 128 µg/mL (≈ 291 µM); in the test on Staphylococcus aureus [4], 64 µg/mL (≈ 146 µM). Moreover, the “diameter of the inhibition zone (DIZ)” value in the test with Escherichia coli is “inactive”. Moreover, the “growth inhibition (GI)” value with Aspergillus flavus is listed as 44.4%; in the test with Aspergillus niger it was 50%. The figures for the zone of inhibition at 4000 µg/mL with Staphylococcus aureus [3] and with Bacillus subtilis [5] were 20.3 mm and 18.3 mm, respectively.
As to `O=C1S/C(=C\c2cn(-c3ccccc3)nc2-c2ccc(F)cc2)C(=O)N1c1ccccc1`, in the test on Pseudomonas aeruginosa [1], the DIZ entry is “inactive”. Also, the figures for the MIC against Bacillus subtilis [2] and against Staphylococcus aureus [4] were 32 µg/mL (≈ 72.5 µM) and 128 µg/mL (≈ 290 µM), respectively. For the same molecule, the “diameter of the inhibition zone (DIZ)” value in the test with Escherichia coli is “inactive”. Further, the “growth inhibition (GI)” value in the test with Aspergillus flavus and in the test with Aspergillus niger was 55.5% throughout. Besides, the results for the zone of inhibition at 4000 µg/mL in the test with Staphylococcus aureus [3] and with Bacillus subtilis [5] were 19.3 mm and 20.6 mm, respectively.
For `COc1ccc(-c2nn(-c3ccccc3)cc2/C=C2\SC(=O)N(c3ccccc3)C2=O)cc1`, the DIZ entry with Pseudomonas aeruginosa [1] is “inactive”. The MIC with Bacillus subtilis [2] and with Staphylococcus aureus [4] was 128 µg/mL (≈ 282 µM) each time. In addition, the “diameter of the inhibition zone (DIZ)” value in the test with Escherichia coli was “inactive”. Further, the figures for the “growth inhibition (GI)” value in the test with Aspergillus flavus and in the test with Aspergillus niger were 66.6% and 50%, respectively. In addition, the zone of inhibition at 4000 µg/mL with Staphylococcus aureus [3] was found to be 18.6 mm; in the test on Bacillus subtilis [5], 16.6 mm.
For `OC(Cn1cncn1)(Cn1cncn1)c1ccc(F)cc1F` [FLUCONAZOLE], the “growth inhibition (GI)” value in the test with Aspergillus flavus is on record as 77.7%; in the test on Aspergillus niger, 81.1%.
Turning to `Cc1ccc(-c2nn(-c3ccccc3)cc2/C=C2\SC(=O)N(c3ccccc3)C2=O)cc1`, the DIZ entry in the test on Pseudomonas aeruginosa [1] was “inactive”. Further, the MIC against Bacillus subtilis [2] was found to be 64 µg/mL (≈ 146 µM); in the test with Staphylococcus aureus [4], 128 µg/mL (≈ 293 µM). Moreover, in the test with Escherichia coli, the “diameter of the inhibition zone (DIZ)” value is “inactive”. In addition, the “growth inhibition (GI)” value is reported as 50% with Aspergillus flavus and 44.4% with Aspergillus niger. In addition, the zone of inhibition at 4000 µg/mL in the test on Staphylococcus aureus [3] was found to be 18.3 mm; in the test on Bacillus subtilis [5], 19.6 mm.
Consider `O=C1S/C(=C\c2cn(-c3ccccc3)nc2-c2cccs2)C(=O)N1c1ccccc1`, for which the DIZ entry with Pseudomonas aeruginosa [1] was “inactive”. Besides, the MIC in the test on Bacillus subtilis [2] and against Staphylococcus aureus [4] was 32 µg/mL (≈ 74.5 µM) each time. In addition, in the test with Escherichia coli, the “diameter of the inhibition zone (DIZ)” value is “inactive”. For the same molecule, the “growth inhibition (GI)” value with Aspergillus flavus was determined as 33.3%; with Aspergillus niger, 50%. The zone of inhibition at 4000 µg/mL with Staphylococcus aureus [3] amounted to 22.3 mm; with Bacillus subtilis [5], 21.6 mm.
With `O=C1S/C(=C\c2cn(-c3ccccc3)nc2-c2ccc([N+](=O)[O-])cc2)C(=O)N1c1ccccc1`, in the test on Pseudomonas aeruginosa [1], the DIZ result was “inactive”. In addition, the MIC in the test with Bacillus subtilis [2] amounted to 128 µg/mL (≈ 273 µM); in the test with Staphylococcus aureus [4], 64 µg/mL (≈ 137 µM). In the test with Escherichia coli, the “diameter of the inhibition zone (DIZ)” value is “inactive”. For the same molecule, the “growth inhibition (GI)” value turned out to be 61.1% in the test on Aspergillus flavus and 50% in the test with Aspergillus niger. The zone of inhibition at 4000 µg/mL with Staphylococcus aureus [3] came out at 20.6 mm; in the test on Bacillus subtilis [5], 18.3 mm.
